# Source: patent US9708602B2, “Screening for inhibitors of ribosome biogenesis” (priority 2013, dated 2017)
# Assays:
# [1] = system: ribosomal subunits of MCrg* cells; test: Sucrose density gradient ribosome profiles (A254 and fluorescence of fractions) of antibiotic treated MCrg* cells; format: cell-based, E. coli; details: for 30S peak region in A254 ribosome profile / 50S peak in A254 ribosome profile: cells cultured with antibiotic in LB medium at 25° C. for 3 hours, 10-25% sucrose gradient; for green (mAzami, large subunit) fluorescence in overlay of A254 and fluorescence profiles: sucrose gradient fractions, micro plate reader
# Procedure: (§1) Whole-cell analyses (A-B): MCrg* cells were cultured in at 25° C. in M9 medium for 7 hours in the absence and presence of antibiotics, as indicated. Samples were taken every hour. (A) OD600 values were determined and (B) mAzami and mCherry fluorescence emission were detected and ratios were calculated. Fluorescence ratios of MCrg* were normalized to 1. Exemplary growth curves are given and fluorescence ratios are means from three independent experiments; error bars show s.d. Analyses of isolated ribosomal particles (C-H and J-M): Sucrose density gradient (10-25%) centrifugation profiles from (C) control cells with no antibiotic (none), (D) chloramphenicol (Cam), (E) erythromycin (Ery), (F) kanamycin (Kan) and (G) neomycin (Neo) treated cells. Sucrose gradient fractions from (C) to (G) were analyzed for fluorescence by a micro plate reader. A254 profiles and fluorescence bar charts were superimposed for (H) control cells with no antibiotic (none), (J) chloramphenicol (Cam), (K) erythromycin (Ery), (L) kanamycin (kan) and (M) neomycin (Neo) treated cells. Cells in presence and absence of antibiotics were cultured in LB medium at 25° C. for 3 hours before subsequent polysome analysis. Left shifted peaks of the large subunit are indicated by horizontal arrows, abnormal portions of the small subunit by vertical arrows; Bars with black lines: normalized mCherry fluorescence; Black bars: normalized mAzami fluorescence. Fluorescence was normalized to the first polysome peak (“disome”) where subunits are present in 1:1 ratio.
# (§2) Using MCrg*, it was investigated, whether treatment of cells with ribosome targeting antibiotics results in assembly defects of both ribosomal subunits. The antibiotics tested were chloramphenicol, erythromycin and neomycin, which are known to cause assembly defects of both ribosomal subunits, and kanamycin, which was so far not investigated for its potential to cause ribosome assembly defects. MCrg* cells were cultured in M9 medium for seven hours in the absence or presence of chloramphenicol (7 μg/ml), erythromycin (100 μg/ml), kanamycin (7 μg/ml) or neomycin (7 μg/ml). […] Treatment with chloramphenicol, by contrast, led to an increased fluorescence ratio, with a maximum of 1.20 after 7 hours. […] This hypothesis was tested by analyzing ribosome profiles obtained from MCrg* cells that grew in the presence of the antibiotics or without (FIG. 15C-G). […] The 70S peak and the polysomes (not shown) are reduced in intensity since no chloramphenicol was added prior to harvesting to prevent 70S run off.
# When focusing on the overlay diagrams (combining A254 and fluorescence read outs) (FIG. 15H, J-M), ribosome profiles from non treated cells are basically congruent (FIG. 15H). […] These peaks of green fluorescence presumably represent defective assembly intermediates of the large subunit that are caused by all the antibiotics used in this study, but to different extend. […] To analyze eventual defects of the small subunit in more detail, the red fluorescence profiles were aligned and the one derived from non treated cells was compared with all the others obtained from antibiotic treated cells. […] A more thorough analysis including quantitation of the 16S and 23S rRNA within the sucrose fractions confirmed the presence of assembly intermediates.
# E. coli cells were inoculated from stationary cultures and incubated until mid-logarithmic phase (OD600=0.6-0.8). In order to record polysome profiles, cells were sedimented, resuspended and lysed. After centrifugation, lysates of 10 A260 units were loaded onto 5-45% sucrose gradients for polysome profiles or 10-40% gradients for subunit separation. Ultracentrifugation was performed at 41.000 rpm (3 h; polysome profiles) or 23.000 rpm (16 h, subunit separation). Ribosomal components in the gradients were analyzed by recording the A254 values and collecting 200 μl and 50 μl fractions, respectively, that were later examined in 96-well plates on fluorescence by using a plate reader.
# MCrg* cells = test: Probing MCrg* with ribosome-targeting antibiotics: whole-cell growth and mAzami/mCherry fluorescence ratio; format: cell-based, E. coli
# Procedure: as §1, §2
# [2] = system: E. coli MC4100 and MC-RG1 cells; test: Detection of ribosome assembly defects: growth (A650) and EGFP/mCherry fluorescence time course in 96-well plates; format: cell-based; details: 30° C., 96-well plate
# Source text: Monitoring biogenesis and assembly of ribosomal subunits also allows the detection of abnormalities in ribosome biogenesis and assembly processes. […] Chloramphenicol primarily binds to the large subunit and thereby inhibits the peptidyl transfer reaction. Alongside a resulting shut-down of protein synthesis, accumulating precursor particles of both ribosomal subunits have been observed. Therefore, treatment of cells with chloramphenicol causes precursor accumulation and assembly defects of ribosomal subunits. E. coli MC4100 and MC-RG1 cells were transferred to 96-well plates and incubated at 30° C. in a plate reader. After one hour, wild-type and reporter cells were treated with increasing amounts of chloramphenicol and incubation was continued for another six more hours. A650 values, EGFP and mCherry specific fluorescence intensities were automatically detected. In the absence of chloramphenicol, the growth curve of the reporter strain reached a maximum A650 of 0.5. […] In vivo fluorescence recordings of the E. coli MC4100rp/S-egfp,rpsB-mcherry-ΔygdP cells growing in 96-well plates were performed and fluorescent signals measured. EGFP/mCherry fluorescence intensity ratios differed clearly when comparing MC4100rp/S-egfp,rpsB-mcherry (RN55b) with MC4100rplS-egfp,rpsB-mcherry-ΔygdP reporter strains. […] The overall decreased EGFP/mCherry fluorescence ratio values of the knock-out strain compared to the RN55b reporter strain are caused by proportional lower EGFP fluorescence intensities. In summary, fluorescence recordings of reporter strains are suitable to detect changes in the level of ribosomal subunits, e.g. due to biogenesis defects.
# Cells grown to stationary phase were diluted to an OD600 of 0.05 and transferred into 96-well plates, such that each well contained an initial volume of 100 μl. […] Cells were further incubated in the plate reader for several hours and fluorescence as well as A650 data were collected every 10 minutes. Mean values were calculated and MC4100 fluorescence background values were subtracted from the reporter strain values.
Molecule,30S peak region in A254 ribosome profile [1],50S peak in A254 ribosome profile [1],"green (mAzami, large subunit) fluorescence in overlay of A254 and fluorescence profiles [1]","cell growth (OD600) (MCrg* cells; M9 medium, seven hours, 25° C., chloramphenicol 7 μg/ml, erythromycin 100 μg/ml, kanamycin 7 μg/ml, neomycin 7 μg/ml)","normalized fluorescence ratio (mAzami/mCherry), maximum (MCrg* cells; chloramphenicol 7 μg/ml, after 7 hours, untreated MCrg* normalized to 1)","concentration above which cells did not grow any further ([2]; added after one hour, six more hours incubation)","cell growth (A650) ([2]; increasing amounts added after one hour, six more hours incubation)",EGFP and mCherry fluorescence ([2]; increasing concentrations),"normalized fluorescence ratio (mAzami/mCherry) (MCrg* cells; erythromycin 100 μg/ml, after 5 hours, untreated MCrg* normalized to 1)","change in the fluorescence ratio (mAzami/mCherry) (MCrg* cells; 7 μg/ml, seven hours time course)"
O=C(N[C@H](CO)[C@H](O)c1ccc([N+](=O)[O-])cc1)C(Cl)Cl [chloramphenicol],additional peak (left-lateral of 30S),reduced and left shifted 50S peaks,portion of green fluorescence within the region of the 30S peak,strongest growth defects,1.20,higher than 15.5 μM,dosedependent reduction of cell growth,decreased with increasing concentrations,,
CC[C@H]1OC(=O)[C@H](C)[C@@H](O[C@H]2C[C@@](C)(OC)[C@@H](O)[C@H](C)O2)[C@H](C)[C@@H](O[C@@H]2O[C@H](C)C[C@H](N(C)C)[C@H]2O)[C@](C)(O)C[C@@H](C)C(=O)[C@H](C)[C@@H](O)[C@]1(C)O [erythromycin],30S peak had a shoulder on the left,reduced and left shifted 50S peaks,portion of green fluorescence within the region of the 30S peak,,,,,,0.95,
neomycin,additional peak on the left of the 30S peak,slight reduction and left shift of the 50S peak,green fluorescent peaks of weaker intensity but at similar positions within the profile,,,,,,,did not show a significant change in the fluorescence ratio
